The results in this text go back to PubChem BioAssay (NCI).

Broadly, the GI50 is the concentration giving 50% growth inhibition. For orientation: TGI means the concentration at which net growth stops.

Test in all cases: DTP human tumour cell line panel, 48 h
For assay [1], the system named is ACHN renal.
Assay [2] has as its system HOP-62 NSCLC.
Assay [3] concerns LOX IMVI melanoma.
The subject of assay [4] is MDA-MB-435.
Assay [5] concerns NCI/ADR-RES ovarian.
In assay [6] the test system is SK-MEL-5 melanoma.
The subject of assay [7] is T-47D breast.

Each structure is given as a SMILES string. Values joined by “and” are separate entries in the source; they are usually repeats but may differ in a detail not shown here. Equal entries are not always repeated.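 Following 48 hours of exposure in 96-well plates, responses at five concentrations were used to interpolate endpoints linearly. GI50 is the concentration that inhibits growth by half. Definition used: TGI = concentration required for complete inhibition of growth.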 A value given as a limit tells only on which side of the number the result lay.

For `Clc1cc2c(c(CSc3nc4ccccc4n4cccc34)c1)OCOC2`, the GI50 in assay [1] was 67.3 µM; in assay [2], 10.3 µM; in assay [3], over 100 µM; in assay [4], over 100 µM; in assay [5], 61 µM; in assay [6] it was over 100 µM. Besides, the GI50 in assay [7] is 0.596 µM. Also, the TGI in assay [1] was over 100 µM; in assay [2] it was 31.8 µM; in assay [3], over 100 µM; in assay [4], over 100 µM; in assay [5], over 100 µM; in assay [6] it was over 100 µM. Besides, the TGI in assay [7] is 9.33 µM.

For `CCN(CC)CCNc1nc(N)c(C#N)c(C#N)c1C#N`, the TGI in assay [1], in assay [2], in assay [3], in assay [4], in assay [5] and in assay [6] was over 10 µM each time. This molecule came in with a concentration for total growth inhibition (TGI) in assay [7] of over 10 µM.

As to `O=C(Cc1ccc(F)c(Cl)c1)Nc1cc(C2(C(F)(F)F)CC2)nn1CC1CCCCC1`, the GI50 in assay [1] is 4.22 µM; in assay [2], 3.96 µM; in assay [3], 4.58 µM; in assay [4] it was 3.85 µM; in assay [5] it was 3.88 µM; in assay [6], 2.61 µM. Besides, the GI50 in assay [7] was 3.78 µM. Also, the concentration for total growth inhibition (TGI) was 13.9 µM in assay [1]; over 15 µM in assay [2]; over 15 µM in assay [3]; 11.7 µM in assay [4]; over 15 µM in assay [5]; 4.88 µM in assay [6]. The TGI in assay [7] came out at 13.6 µM.

With `COc1ccc2nc3ccccc3c(NCc3ccc(F)cc3)c2c1`, the GI50 was 1.82 µM in assay [1]; 2.34 µM in assay [2]; 0.841 µM in assay [3]; 2.14 µM in assay [4]; 1.82 µM in assay [5]; 2 µM in assay [6]. Besides, the GI50 in assay [7] was 3.11 µM. In addition, the TGI turned out to be 6.68 µM in assay [1]; 10.9 µM in assay [2]; 1.71 µM in assay [3]; 8.26 µM in assay [4]; 8.24 µM in assay [5]; 7.2 µM in assay [6]. In assay [7], this molecule registered a TGI of 13.6 µM.

Turning to `NNC(=O)CNc1cccc(Br)c1`, the concentration for total growth inhibition (TGI) in assay [1], in assay [2], in assay [3], in assay [4], in assay [5] and in assay [6] was over 100 µM throughout. In addition, the TGI in assay [7] is over 100 µM.

For the molecule `O=C(Nc1cc(C(F)(F)F)cc(C(F)(F)F)c1)c1cc(Cl)ccc1O`, the GI50 was 0.294 µM and 0.26 µM in assay [1]; 0.26 µM and 0.355 µM in assay [2]; 0.316 µM and 0.366 µM in assay [3]; 0.288 µM and 0.284 µM in assay [4]; 0.227 µM and 0.257 µM in assay [5]; 0.0632 µM and 0.094 µM in assay [6]. For the same molecule, in assay [7], the concentration for 50% growth inhibition (GI50) was 0.15 µM and 0.194 µM. The TGI in assay [1] is 1.19 µM and 0.978 µM; in assay [2] it was 1.2 µM and 4.38 µM; in assay [3], 1.51 µM and 2.68 µM; in assay [4], 1.31 µM and 1.61 µM; in assay [5], > 2.76 µM and 3.87 µM; in assay [6], 0.206 µM and 0.257 µM. Also, the TGI in assay [7] was 0.604 µM and 1.24 µM.

For `CCCC(=O)Nc1cn(COC)c(C(=O)N2C[C@@H]3C[C@]34C2=CC(=O)c2[nH]cc(C)c24)n1`, the GI50 in assay [1] was 2.16 µM; in assay [2], 3.91 µM; in assay [4], 11.1 µM; in assay [5], 14.9 µM; in assay [6] it was 3.28 µM; in assay [7], 7.01 µM. Also, the TGI in assay [1] is 50 µM and 6.82 µM; in assay [2], 50 µM and 15.2 µM; in assay [3], 21.9 µM and 53.8 µM; in assay [4] it was 27.4 µM and 27.1 µM; in assay [5], 20.7 µM and 28.9 µM; in assay [6], 12.8 µM and 11.8 µM. For the same molecule, in assay [7], the TGI is 38.4 µM and 21.1 µM.

For `CCN1CCN(c2cc(C)c3cc(NC(=O)c4ccc(OC)c(OC)c4)ccc3n2)CC1`, the GI50 in assay [1] is over 34.4 µM; in assay [2] it was over 37 µM; in assay [3] it was 9.36 µM; in assay [4] it was 0.448 µM; in assay [5], over 49.1 µM; in assay [6] it was 1.17 µM. In assay [7], the GI50 is over 39 µM. The total growth inhibition concentration (TGI) in assay [1] was over 100 µM; in assay [2], over 57.7 µM; in assay [3] it was 24.3 µM; in assay [4], 5.56 µM; in assay [5], over 100 µM; in assay [6], over 42.3 µM. The molecule also yielded a TGI in assay [7] of over 100 µM.

On to `CC(=O)ON1CCCC(P(=O)(OCCSC(=O)C(C)(C)C)OCCSC(=O)C(C)(C)C)C1=O` (configuration not stated), for which the GI50 in assay [1] was 1.75 µM; in assay [2], 3.21 µM; in assay [3], 1.22 µM; in assay [4], 3.02 µM; in assay [5], 1.35 µM; in assay [6], 1.21 µM. Also, the GI50 in assay [7] is 2.08 µM. The concentration for total growth inhibition (TGI) is 30.4 µM in assay [1]; over 100 µM in assay [2]; 95.5 µM in assay [3]; 88.6 µM in assay [4]; 12.4 µM in assay [5]; 4.15 µM in assay [6]. In assay [7], this molecule registered a TGI of over 100 µM.

Consider `CN1C(=O)c2ccccc2NC(=O)C12O[C@@H]2c1ccccc1` (some centres not stated), for which the TGI in assay [1], in assay [2], in assay [3], in assay [4], in assay [5] and in assay [6] was over 100 µM throughout. Further, the TGI in assay [7] is over 100 µM.

As for `O=C(NC[C@H](O)CN1CCc2ccccc2C1)c1cc(NC2COC2)ncn1`, the GI50 in assay [1] was 25.1 µM; in assay [2], 37.7 µM; in assay [3] it was 7.21 µM; in assay [4] it was 12.9 µM; in assay [5], 15.9 µM; in assay [6] it was 11.4 µM. Further, in assay [7], the GI50 was 9.26 µM. Also, the TGI in assay [1] was over 100 µM; in assay [2] it was over 100 µM; in assay [3], 23.3 µM; in assay [4], 94.1 µM; in assay [5] it was 57.9 µM; in assay [6], 24.5 µM. Also, the TGI in assay [7] was over 100 µM.

Consider `Cc1nc(N)sc1N=Nc1ccccc1Br`, for which the TGI in assay [1] is over 86 µM; in assay [2] it was 78.4 µM; in assay [3], over 66.1 µM; in assay [4], 47.9 µM; in assay [5], 72.5 µM; in assay [6], 48.6 µM. Further, in assay [7], the TGI came to 57.2 µM.

On to `NC(N)=N/N=C/c1c(Cl)cccc1Cl`, for which the GI50 in assay [1] is 25.4 µM; in assay [2], 30.9 µM; in assay [3] it was 14.4 µM; in assay [4], 15.3 µM; in assay [5], 28.9 µM; in assay [6], 14.6 µM. The GI50 in assay [7] is 14.7 µM. Moreover, the TGI in assay [1] was over 100 µM; in assay [2], over 100 µM; in assay [3] it was 30.1 µM; in assay [4], 31.1 µM; in assay [5], over 100 µM; in assay [6], 27.7 µM. In assay [7], this molecule showed a concentration for total growth inhibition (TGI) of 39.6 µM.

Regarding `O=c1oc2ccc(-c3ccc(F)cc3F)cc2c(=O)n1-c1cccc(C(F)(F)F)c1`, the GI50 in assay [1] is 2.25 µM; in assay [2], 1.73 µM; in assay [3], 1.61 µM; in assay [4], 1.44 µM; in assay [5] it was 2.2 µM; in assay [6], 0.44 µM. Further, the GI50 in assay [7] is 0.317 µM. In addition, the TGI is 8.37 µM in assay [1]; 4.57 µM in assay [2]; 5.55 µM in assay [3]; 8.04 µM in assay [4]; 8.9 µM in assay [5]; 1.71 µM in assay [6]. Also, the TGI in assay [7] was found to be 3.29 µM.

With `C[C@@H]1C[C@@H]([C@@H](CC2CC(=O)NC(=O)C2)OC(=O)CC(=O)c2ccccc2)C(=O)[C@@H](C)C1`, the GI50 is 0.0777 µM in assay [1]; 0.99 µM in assay [2]; 0.646 µM in assay [3]; 0.463 µM in assay [4]; 0.689 µM in assay [5]; 0.661 µM in assay [6]. Besides, in assay [7], the GI50 is 0.554 µM. Also, the TGI in assay [1] was over 100 µM; in assay [2], over 100 µM; in assay [3], over 100 µM; in assay [4] it was over 32.6 µM; in assay [5] it was over 100 µM; in assay [6], over 100 µM. Further, in assay [7], the TGI is over 29.4 µM.

Consider `S=c1[nH]c(=S)c2cc3ccccc3nc2[nH]1`, for which the GI50 in assay [1] was over 100 µM; in assay [2] it was over 100 µM; in assay [3], over 100 µM; in assay [4], 31.1 µM; in assay [5], over 100 µM; in assay [6], 30 µM. Further, the GI50 in assay [7] is 11.1 µM. Moreover, the TGI in assay [1], in assay [2], in assay [3], in assay [4], in assay [5] and in assay [6] was over 100 µM each time. For the same molecule, in assay [7], the TGI was over 100 µM.

Regarding `CC1CC2CCCC(O)=C2C(=O)O1` (configuration not stated), the TGI in assay [1], in assay [2], in assay [3], in assay [4], in assay [5] and in assay [6] was over 100 µM throughout. In addition, the TGI in assay [7] was over 100 µM.
